One test deals with T1, human H4R Q347A mutant (Homo sapiens, UniProt Q9H3N8, Q347A).
T1 construct: a mutant H4R (human, full-length, and untagged); expressed in transfected cells; host or cells: HEK293A
Description: TGFα shedding assay, H4R Q347A mutant. Type of test: cell-based. The conditions noted are these: Q347A mutant; AP-TGFα release; read-out: Emax (%) mean ± SEM. The procedure:
(§1) The mutants were prepared using the primers listed in Supplementary Table 2. […] The chimeric Gαq/i1 subunit comprises the Gαq backbone and Gαi1-derived six-amino acid C-terminus and couples with Gi-coupled H4R but induces a Gq-dependent TGFα shedding response. After culturing for 1 day and incubating at 37 °C in a 5% CO2 incubator, the transfected cells were harvested by trypsinization, neutralized with Dulbecco’s modified Eagle’s medium containing 10% fetal calf serum (FCS) and penicillin–streptomycin, washed once with Hank’s balanced salt solution (HBSS) containing 5 mM of HEPES (pH 7.4), and resuspended in 6 mL of the HEPES-containing HBSS. The cell suspension was seeded into a 96-well plate at a volume of […] per well (typically, 48 wells per transfected cells) and incubated for 30 min in the CO2 incubator. Test compounds (10×, diluted in 0.01% BSA and 5 mM of HEPES-containing HBSS, […] volume) were added to duplicate wells and incubated for 1 h. After centrifugation, the conditioned medium ([…]) was transferred to an empty 96-well plate. AP reaction solution [10 mM of p-nitrophenylphosphate (p-NPP), 120 mM of Tris–HCl (pH 9.5), 40 mM of NaCl, and 10 mM of MgCl2] was dispensed into the cell culture plates and plates containing conditioned media ([…]). Absorbance was measured at 405 nm before and after a 1-h incubation period at 25 °C using a microplate reader (iMark™ Microplate Absorbance Reader; BioRad). Ligand-induced AP-TGFα release was calculated as previously described. The vehicle-treated AP-TGFα release signal was set as a baseline unless otherwise specified. AP-TGFα release signals were fitted with a four-parameter sigmoidal concentration-response curve, from which EC50 and Emax values were obtained, using GraphPad Prism 9 software (GraphPad Prism). Negative values of logarithmically transformed EC50 values (pEC50) were used to calculate the mean and standard error of independent experiments.
(§2) All functional study data were analyzed using Prism 9 (GraphPad) and are presented as mean ± standard error of the mean (SEM) of three independent experiments. Statistical analyses were performed using Prism 9 (GraphPad) with one-way analysis of variance followed by Dunnett’s post-hoc test. Values with p < 0.05 are considered statistically significant.

The next test relates to H4R. The conditions noted are these: cited from earlier work.
The target in the next test is T2, human H4R T99A mutant (Homo sapiens, UniProt Q9H3N8, T99A).
T2 construct: a mutant H4R (human, full-length, and untagged); expressed in transfected cells; host or cells: HEK293A
T2 sequence (Q9H3N8 whole entry T99A): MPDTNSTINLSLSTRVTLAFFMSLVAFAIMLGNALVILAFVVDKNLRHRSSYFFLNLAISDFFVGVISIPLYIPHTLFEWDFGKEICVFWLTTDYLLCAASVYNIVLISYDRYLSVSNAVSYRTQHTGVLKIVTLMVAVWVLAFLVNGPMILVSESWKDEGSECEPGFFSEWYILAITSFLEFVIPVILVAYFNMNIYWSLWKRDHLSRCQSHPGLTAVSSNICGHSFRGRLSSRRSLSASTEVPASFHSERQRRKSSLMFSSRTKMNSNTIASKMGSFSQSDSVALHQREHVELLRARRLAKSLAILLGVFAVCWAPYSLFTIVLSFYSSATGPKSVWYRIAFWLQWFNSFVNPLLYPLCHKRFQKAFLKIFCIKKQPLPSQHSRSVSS
Description: TGFα shedding assay, H4R T99A mutant. The class given is cell-based. The conditions noted are these: T99A mutant; AP-TGFα release; read-out: Emax (%) mean ± SEM. As to the method:
as §1, §2

The test system of the next test is H1R. The conditions noted are these: range in words; cited from earlier work.
The next test has as its target T3, human H4R Y95A mutant (Homo sapiens, UniProt Q9H3N8, Y95A).
T3 construct: a mutant H4R (human, full-length, and untagged); expressed in transfected cells; host or cells: HEK293A
Description: TGFα shedding assay, H4R Y95A mutant. The class given is cell-based. Conditions: Y95A mutant vs wild type. The procedure: as §1
(§3) All functional study data were analyzed using Prism 9 (GraphPad) and are presented as mean ± standard error of the mean (SEM) of three independent experiments. […]

A further test deals with T4, human H4R Q347G mutant (Homo sapiens, UniProt Q9H3N8, Q347G).
T4 construct: a mutant H4R (human, full-length, and untagged); expressed in transfected cells; host or cells: HEK293A
T4 sequence (Q9H3N8 whole entry Q347G): as the sequence (Q9H3N8 whole entry T99A) above, with A99T, Q347G counted along it
Description: TGFα shedding assay, H4R Q347G mutant. Type of test: cell-based. The conditions noted are these: for Shedding assay: Q347G, raw replicates. As to the method: as §1, §2

In the next test the target is T5, human H4R N147A mutant (Homo sapiens, UniProt Q9H3N8, N147A).
T5 construct: a mutant H4R (human, full-length, and untagged); expressed in transfected cells; host or cells: HEK293A
T5 sequence (Q9H3N8 whole entry N147A): as the sequence (Q9H3N8 whole entry T99A) above, with A99T, N147A counted along it
Nature of the test: TGFα shedding assay, H4R N147A mutant. The conditions noted are these: N147A mutant; AP-TGFα release; read-out: Emax (%) mean ± SEM. Type of test: cell-based. The procedure:
as §1, §2

Another test addresses T6, human H4R N147W mutant (Homo sapiens, UniProt Q9H3N8, N147W).
T6 construct: a mutant H4R (human, full-length, and untagged); expressed in transfected cells; host or cells: HEK293A
Description: TGFα shedding assay, H4R N147W mutant. Type of test: cell-based. Conditions: N147W (H1R mimic) mutant vs wild type. As to the method: as §1, §2

The next test addresses T7, human H4R F344I mutant (Homo sapiens, UniProt Q9H3N8, F344I).
T7 construct: a mutant H4R (human, full-length, and untagged); expressed in transfected cells; host or cells: HEK293A
Description: TGFα shedding assay, H4R F344I mutant. The conditions noted are these: F344I (H1R mimic) mutant vs wild type. Type of test: cell-based. The procedure:
as §1, §2

A further test has as its target T8, human H4R Y319A mutant (Homo sapiens, UniProt Q9H3N8, Y319A).
T8 construct: a mutant H4R (human, full-length, and untagged); expressed in transfected cells; host or cells: HEK293A
Description: TGFα shedding assay, H4R Y319A mutant. Type of test: cell-based. Conditions: Y319A, raw replicates. As to the method:
as §1, §2

For a further test, the system named is H2R. Conditions: range in words; cited from earlier work.
The target of another test is T9, human H4R E182N mutant (Homo sapiens, UniProt Q9H3N8, E182N).
T9 construct: a mutant H4R (human, full-length, and untagged); expressed in transfected cells; host or cells: HEK293A
T9 sequence (Q9H3N8 whole entry E182N): as the sequence (Q9H3N8 whole entry T99A) above, with A99T, E182N counted along it
Description: TGFα shedding assay, H4R E182N mutant. The class given is cell-based. Conditions: E182N (H1R mimic) mutant vs wild type. As to the method: as §1, §3

For a further test, the target named is T10, human H4R D94A mutant (Homo sapiens, UniProt Q9H3N8, D94A).
T10 construct: a mutant H4R (human, full-length, and untagged); expressed in transfected cells; host or cells: HEK293A
T10 sequence (Q9H3N8 whole entry D94A): as the sequence (Q9H3N8 whole entry T99A) above, with D94A, A99T counted along it
Nature of the test: TGFα shedding assay, H4R D94A mutant. The class given is cell-based. Conditions: D94A mutant vs wild type. As to the method: as §1, §3

Another test deals with H3R. Conditions: cited from earlier work.
A further test addresses T11, human wild-type H4R (Homo sapiens, UniProt Q9H3N8).
T11 construct: a mutant H4R (human, full-length, and untagged); expressed in transfected cells; host or cells: HEK293A
Nature of the test: TGFα shedding assay, wild-type H4R. The class given is cell-based. The conditions noted are these: WT H4R; AP-TGFα release; read-out: Emax (%) mean ± SEM. As to the method:
as §1, §2

The next test has as its target T12, human H4R N147Y mutant (Homo sapiens, UniProt Q9H3N8, N147Y).
T12 construct: a mutant H4R (human, full-length, and untagged); expressed in transfected cells; host or cells: HEK293A
Description: TGFα shedding assay, H4R N147Y mutant. Conditions: N147Y mutant; AP-TGFα release; read-out: Emax (%) mean ± SEM. The class given is cell-based. As to the method: as §1, §2

The target in the next test is T13, human H4R W348A mutant (Homo sapiens, UniProt Q9H3N8, W348A).
T13 construct: a mutant H4R (human, full-length, and untagged); expressed in transfected cells; host or cells: HEK293A
T13 sequence (Q9H3N8 whole entry W348A): as the sequence (Q9H3N8 whole entry T99A) above, with A99T, W348A counted along it
Nature of the test: TGFα shedding assay, H4R W348A mutant. Conditions: W348A mutant vs wild type. Type of test: cell-based. The procedure:
as §1, §3

Values joined by “and” are separate entries in the source; they are usually repeats but may differ in a detail not shown here. Equal entries are not always repeated.

T8 sequence (Q9H3N8 whole entry Y319A): as the sequence (Q9H3N8 whole entry T99A) above, with A99T, Y319A counted along it
T1 sequence (Q9H3N8 whole entry Q347A): as the sequence (Q9H3N8 whole entry T99A) above, with A99T, Q347A counted along it
T7 sequence (Q9H3N8 whole entry F344I): as the sequence (Q9H3N8 whole entry T99A) above, with A99T, F344I counted along it
T6 sequence (Q9H3N8 whole entry N147W): as the sequence (Q9H3N8 whole entry T99A) above, with A99T, N147W counted along it
T3 sequence (Q9H3N8 whole entry Y95A): as the sequence (Q9H3N8 whole entry T99A) above, with Y95A, A99T counted along it
T11 sequence (Q9H3N8 whole entry): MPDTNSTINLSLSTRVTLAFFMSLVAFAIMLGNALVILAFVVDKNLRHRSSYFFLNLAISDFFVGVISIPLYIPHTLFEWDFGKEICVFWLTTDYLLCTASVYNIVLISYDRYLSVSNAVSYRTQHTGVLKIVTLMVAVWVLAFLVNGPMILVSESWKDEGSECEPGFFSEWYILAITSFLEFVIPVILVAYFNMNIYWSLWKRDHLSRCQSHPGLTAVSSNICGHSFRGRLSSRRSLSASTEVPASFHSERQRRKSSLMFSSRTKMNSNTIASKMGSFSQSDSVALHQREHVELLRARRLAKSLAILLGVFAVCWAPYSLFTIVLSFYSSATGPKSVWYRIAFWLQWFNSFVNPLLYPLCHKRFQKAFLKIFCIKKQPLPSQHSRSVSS
T12 sequence (Q9H3N8 whole entry N147Y): as the sequence (Q9H3N8 whole entry T99A) above, with A99T, N147Y counted along it

Take `NCCc1c[nH]cn1` [Histamine, histamine]: the maximal effect (Emax) – broadly, the maximal effect, on the per cent scale that the assay sets – on human H4R Q347A mutant is 10.1 ± 0.39%; at human H4R T99A mutant, 22.8 ± 4.74%; on human H4R Q347G mutant (Q347G mutant, AP-TGFα release, read-out: Emax (%) mean ± SEM) it was 8.8 ± 2.03%; on human H4R N147A mutant, 14.1 ± 1.55%; at human wild-type H4R, 19.4 ± 1.15%; at human H4R N147Y mutant, 12.7 ± 0.59%. Moreover, in the test with H4R (range in words), the “affinity of H4R” value was “nM range”. In addition, the “affinity of H1R” value in the test with H1R is “μM range”. In addition, the “signaling activity at mutant, in words” value at human H4R Y95A mutant is on record as “dramatically reduced”; at human H4R N147W mutant, “loss of signaling activity”; on human H4R F344I mutant it was “did not exhibit histamine activity”; on human H4R E182N mutant, “loss of signaling activity”; at human H4R D94A mutant it was “loss of activity”; at human H4R W348A mutant, “loss of signaling activity”. Moreover, the Shedding assay on human H4R Q347G mutant (Histamine (M) -5) is 4.036 and 4.533 and 6.034 and 9.629 and 9.888 and 8.1039 and 5.715 and 9.816 and 2.227; at human H4R Q347G mutant (Histamine (M) -6), 1.244 and 2.414 and 2.709 and 6.101 and 2.59 and 6.7488 and 1.268 and 6.261 and -9.381; at human H4R Q347G mutant (Histamine (M) -7), -1.992; on human H4R Q347G mutant (Histamine (M) -8), -6.39 and -0.908 and -4.351 and 0.1532 and -4.023 and 1.012 and -2.686 and 0.1556 and -3.9539; at human H4R Q347G mutant (Histamine (M) -9), -4.698 and -2.781 and -3.3698 and 0.654 and -4.363 and -0.5978 and -4.585 and -1.275 and -2.147; on human H4R Q347G mutant (Histamine (M) -10) it was -5.104 and -0.2815 and -4.911 and 2.46 and -0.8571 and 1.119 and -8.947 and 3.16 and -0.4453. The Shedding assay at human H4R Y319A mutant (Histamine (M) -5) was 10.8768 and 12.6921 and 5.241 and 7.176 and 7.908 and 3.094 and 14.7688 and 13.1717 and 9.412; at human H4R Y319A mutant (Histamine (M) -6) it was 7.788 and 3.872 and 6.096 and 6.136 and 6.023 and -28.9656 and 4.365 and 5.9934 and -0.2046; on human H4R Y319A mutant (Histamine (M) -7), 2.44 and -1.231 and 2.155 and 1.85 and -1.394 and -29.3347 and -0.9921 and -1.291 and -2.241; at human H4R Y319A mutant (Histamine (M) -8) it was 0.6613 and -7 and -0.6175 and -0.4917 and -2.608 and -5.072 and 0.7937 and -1.913 and -2.583; on human H4R Y319A mutant (Histamine (M) -9), -1.209 and -22 and -6.981 and -12.6602 and -5.831 and -0.2422 and 1.077 and -0.278 and -3.864; on human H4R Y319A mutant (Histamine (M) -10), 1.569 and -4.989 and -1.258 and -2.207 and 3.939 and 1.7806 and 0.1134 and -2.911 and -0.5847. Also, in the test with H2R, the “affinity of H2R” value was “μM range”. Moreover, the “affinity of H3R” value in the test with H3R (range in words) is given as “nM range”.
Regarding `CN=C(NC#N)NC[C@H]1CC[C@H](c2cnc[nH]2)O1` [OUP-16], the “selectivity for H4R” value with H4R (H4R over H3R) is 16 fold. Besides, the Ki – broadly, the equilibrium dissociation constant of an inhibitor or competing ligand from its target – at H4R (read-out: H4R Ki) is 125 nM; on H3R (read-out: H3R Ki), 2000 nM.
